pIC50: −log10 of the molar value.
How the values were obtained:
PCTK3 = target: T1, PCTK3 (Homo sapiens, UniProt Q07002); test: KinomeScan; assay type: binding; conditions: 1uM
T1 construct: purchased DiscoveRx KINOMEscan

ERBB3 = target: T2, ERBB3 (Homo sapiens, UniProt P21860); test: KinomeScan; assay type: binding; conditions: 1uM
T2 construct: purchased DiscoveRx KINOMEscan

CDK8 = target: T3, CDK8 (Homo sapiens, UniProt P49336); test: KinomeScan; assay type: binding; conditions: 1uM
T3 construct: purchased DiscoveRx KINOMEscan

LTK = target: T4, LTK (Homo sapiens, UniProt P29376); test: KinomeScan; assay type: binding; conditions: 1uM
T4 construct: purchased DiscoveRx KINOMEscan

PI4KA = target: T5, PI4KA (Homo sapiens, UniProt P42356); test: ADP-glo biochemical assay
T5 construct: purchased Invitrogen
Method: (§1) The reaction in each tube was started immediately by adding ATP and kept going for an hour under 37°C. After the tube cooled for 5 minutes at room temperature, 5 μL solvent reactions were carried out in a 384-well plate. Then 5 μL of ADP-Glo™ reagent was added into each well to stop the reaction and consume the remaining ADP within 40 minutes. At the end, 10 μL of kinase detection reagent was added into the well and incubated for 30 minutes to produce a luminescence signal. Luminescence signal was measured with an automated plate reader (Perkin-Elmer Envision) and each measurement was performed in triplicate.

PRKR = target: T6, PRKR (Homo sapiens, UniProt P19525); test: KinomeScan; assay type: binding; conditions: 1uM
T6 construct: purchased DiscoveRx KINOMEscan
T6 sequence (P19525 whole entry): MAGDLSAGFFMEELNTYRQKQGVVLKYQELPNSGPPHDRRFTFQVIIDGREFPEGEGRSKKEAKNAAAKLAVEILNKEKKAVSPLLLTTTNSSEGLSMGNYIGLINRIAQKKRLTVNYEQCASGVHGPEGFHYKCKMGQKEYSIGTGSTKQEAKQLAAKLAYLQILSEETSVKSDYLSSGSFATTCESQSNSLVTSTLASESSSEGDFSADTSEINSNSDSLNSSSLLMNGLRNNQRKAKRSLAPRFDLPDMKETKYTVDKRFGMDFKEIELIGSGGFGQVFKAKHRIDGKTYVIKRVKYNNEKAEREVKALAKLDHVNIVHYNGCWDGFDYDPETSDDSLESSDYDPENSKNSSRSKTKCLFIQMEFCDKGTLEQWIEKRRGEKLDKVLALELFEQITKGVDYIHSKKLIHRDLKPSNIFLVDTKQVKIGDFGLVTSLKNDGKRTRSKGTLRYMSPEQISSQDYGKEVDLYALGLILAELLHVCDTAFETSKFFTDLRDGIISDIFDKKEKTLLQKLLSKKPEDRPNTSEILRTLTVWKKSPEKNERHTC

MKNK2 = target: T7, MKNK2 (Homo sapiens, UniProt Q9HBH9); test: KinomeScan; assay type: binding; conditions: 1uM
T7 construct: purchased DiscoveRx KINOMEscan

[1] = target: T8, RPS6KA5(Kin.Dom.1-N-terminal) (Homo sapiens, UniProt O75582); test: KinomeScan; assay type: binding; conditions: 1uM
T8 construct: RPS6KA5(Kin.Dom.1-N-terminal); purchased DiscoveRx KINOMEscan
T8 sequence (O75582 1-387 limits assumed): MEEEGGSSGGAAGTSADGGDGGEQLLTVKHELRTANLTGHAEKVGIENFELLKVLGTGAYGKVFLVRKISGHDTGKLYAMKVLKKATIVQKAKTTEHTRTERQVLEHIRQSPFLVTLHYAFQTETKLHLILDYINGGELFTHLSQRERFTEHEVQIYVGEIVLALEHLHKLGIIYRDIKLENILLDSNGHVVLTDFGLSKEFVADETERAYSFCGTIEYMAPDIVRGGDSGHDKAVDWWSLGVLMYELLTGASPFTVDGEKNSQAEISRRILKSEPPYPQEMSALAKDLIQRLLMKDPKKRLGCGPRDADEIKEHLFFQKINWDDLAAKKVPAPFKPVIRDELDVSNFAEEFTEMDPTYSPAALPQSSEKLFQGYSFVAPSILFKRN

PRKD2 = target: T9, PRKD2 (Homo sapiens, UniProt Q9BZL6); test: KinomeScan; assay type: binding; conditions: 1uM
T9 construct: purchased DiscoveRx KINOMEscan

RET(V804M) = target: T10, RET(V804M) (Homo sapiens, UniProt P07949, V804M); test: KinomeScan; assay type: binding; conditions: 1uM
T10 construct: purchased DiscoveRx KINOMEscan

FLT3(D835H) = target: T11, FLT3(D835H) (Homo sapiens, UniProt P36888, D835H); test: KinomeScan; assay type: binding; conditions: 1uM
T11 construct: purchased DiscoveRx KINOMEscan

[2] = target: T12, JAK2(JH1domain-catalytic) (Homo sapiens, UniProt O60674); test: KinomeScan; assay type: binding; conditions: 1uM
T12 construct: JAK2(JH1domain-catalytic); purchased DiscoveRx KINOMEscan

PRKCD = target: T13, PRKCD (Homo sapiens, UniProt Q05655); test: KinomeScan; assay type: binding; conditions: 1uM
T13 construct: purchased DiscoveRx KINOMEscan

GSK3B = target: T14, GSK3B (Homo sapiens, UniProt P49841); test: KinomeScan; assay type: binding; conditions: 1uM
T14 construct: purchased DiscoveRx KINOMEscan
T14 sequence (P49841 whole entry): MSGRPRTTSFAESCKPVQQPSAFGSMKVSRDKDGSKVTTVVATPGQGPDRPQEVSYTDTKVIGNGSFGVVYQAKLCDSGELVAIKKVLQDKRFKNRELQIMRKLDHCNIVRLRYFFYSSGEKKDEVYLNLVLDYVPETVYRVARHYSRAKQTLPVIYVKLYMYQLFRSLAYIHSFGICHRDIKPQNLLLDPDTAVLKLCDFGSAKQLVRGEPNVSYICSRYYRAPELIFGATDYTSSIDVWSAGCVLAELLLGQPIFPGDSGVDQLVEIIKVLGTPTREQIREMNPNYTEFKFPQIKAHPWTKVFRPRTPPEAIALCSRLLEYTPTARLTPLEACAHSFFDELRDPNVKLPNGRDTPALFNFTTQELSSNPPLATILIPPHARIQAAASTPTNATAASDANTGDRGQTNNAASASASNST

AURKC = target: T15, AURKC (Homo sapiens, UniProt Q9UQB9); test: KinomeScan; assay type: binding; conditions: 1uM
T15 construct: purchased DiscoveRx KINOMEscan

WNK3 = target: T16, WNK3 (Homo sapiens, UniProt Q9BYP7); test: KinomeScan; assay type: binding; conditions: 1uM
T16 construct: purchased DiscoveRx KINOMEscan

TSSK1B = target: T17, TSSK1B (Homo sapiens, UniProt Q9BXA7); test: KinomeScan; assay type: binding; conditions: 1uM
T17 construct: purchased DiscoveRx KINOMEscan
T17 sequence (Q9BXA7 whole entry): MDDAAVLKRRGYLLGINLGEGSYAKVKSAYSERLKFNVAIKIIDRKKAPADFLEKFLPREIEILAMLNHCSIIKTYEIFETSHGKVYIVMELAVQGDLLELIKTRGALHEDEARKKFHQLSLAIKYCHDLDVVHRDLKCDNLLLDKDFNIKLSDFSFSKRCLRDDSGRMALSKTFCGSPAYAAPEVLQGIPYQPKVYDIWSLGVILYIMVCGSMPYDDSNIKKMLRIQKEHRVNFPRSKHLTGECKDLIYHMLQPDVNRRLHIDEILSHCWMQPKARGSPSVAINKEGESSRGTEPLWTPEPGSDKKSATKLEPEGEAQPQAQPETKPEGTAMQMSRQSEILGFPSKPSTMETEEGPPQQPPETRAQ

HPK1 = target: T18, HPK1 (Homo sapiens, UniProt Q92918); test: KinomeScan; assay type: binding; conditions: 1uM
T18 construct: purchased DiscoveRx KINOMEscan
T18 sequence (Q92918 whole entry): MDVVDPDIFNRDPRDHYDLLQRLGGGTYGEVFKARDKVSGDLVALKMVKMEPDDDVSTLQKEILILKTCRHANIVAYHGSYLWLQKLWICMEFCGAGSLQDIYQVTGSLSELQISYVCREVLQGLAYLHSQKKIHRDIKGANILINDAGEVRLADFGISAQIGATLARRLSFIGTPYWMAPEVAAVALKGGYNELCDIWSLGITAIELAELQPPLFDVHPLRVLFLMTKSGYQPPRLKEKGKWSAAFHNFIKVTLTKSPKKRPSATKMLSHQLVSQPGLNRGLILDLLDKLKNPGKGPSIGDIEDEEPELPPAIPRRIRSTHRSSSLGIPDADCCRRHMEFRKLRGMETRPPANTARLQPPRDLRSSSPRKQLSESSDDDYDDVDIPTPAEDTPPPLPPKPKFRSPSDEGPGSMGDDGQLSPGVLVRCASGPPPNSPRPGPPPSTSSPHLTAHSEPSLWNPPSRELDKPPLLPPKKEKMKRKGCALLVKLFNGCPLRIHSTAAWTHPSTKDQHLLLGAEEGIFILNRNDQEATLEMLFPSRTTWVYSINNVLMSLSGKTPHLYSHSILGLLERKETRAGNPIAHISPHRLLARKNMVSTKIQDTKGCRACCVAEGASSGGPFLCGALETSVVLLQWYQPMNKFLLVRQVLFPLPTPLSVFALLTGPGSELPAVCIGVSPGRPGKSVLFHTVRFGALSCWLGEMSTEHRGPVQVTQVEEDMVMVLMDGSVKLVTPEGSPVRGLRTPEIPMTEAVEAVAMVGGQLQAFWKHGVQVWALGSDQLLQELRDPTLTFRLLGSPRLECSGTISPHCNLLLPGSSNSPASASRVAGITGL

[3] = target: T19, ABL1(M351T)-phosphorylated (Homo sapiens, UniProt P00519, M351T); test: KinomeScan; assay type: binding; conditions: 1uM
T19 construct: purchased DiscoveRx KINOMEscan

NEK9 = target: T20, NEK9 (Homo sapiens, UniProt Q8TD19); test: KinomeScan; assay type: binding; conditions: 1uM
T20 construct: purchased DiscoveRx KINOMEscan

MLK2 = target: T21, MLK2 (Homo sapiens, UniProt Q02779); test: KinomeScan; assay type: binding; conditions: 1uM
T21 construct: purchased DiscoveRx KINOMEscan

PFTAIRE2 = target: T22, PFTAIRE2 (Homo sapiens, UniProt Q96Q40); test: KinomeScan; assay type: binding; conditions: 1uM
T22 construct: purchased DiscoveRx KINOMEscan

BMPR1A = target: T23, BMPR1A (Homo sapiens, UniProt P36894); test: KinomeScan; assay type: binding; conditions: 1uM
T23 construct: purchased DiscoveRx KINOMEscan

WEE1 = target: T24, WEE1 (Homo sapiens, UniProt P30291); test: KinomeScan; assay type: binding; conditions: 1uM
T24 construct: purchased DiscoveRx KINOMEscan

p38-alpha = target: T25, p38-alpha (Homo sapiens, UniProt Q16539); test: KinomeScan; assay type: binding; conditions: 1uM
T25 construct: purchased DiscoveRx KINOMEscan
T25 sequence (Q16539 whole entry): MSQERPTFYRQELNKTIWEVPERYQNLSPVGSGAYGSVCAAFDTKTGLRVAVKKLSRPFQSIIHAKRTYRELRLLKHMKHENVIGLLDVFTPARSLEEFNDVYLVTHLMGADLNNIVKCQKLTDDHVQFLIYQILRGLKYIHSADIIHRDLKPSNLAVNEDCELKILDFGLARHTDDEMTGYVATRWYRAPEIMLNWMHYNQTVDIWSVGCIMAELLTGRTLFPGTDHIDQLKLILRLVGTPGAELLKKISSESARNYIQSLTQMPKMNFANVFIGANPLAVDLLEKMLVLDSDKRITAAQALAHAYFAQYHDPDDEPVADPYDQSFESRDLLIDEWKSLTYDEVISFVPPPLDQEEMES

PCTK1 = target: T26, PCTK1 (Homo sapiens, UniProt Q00536); test: KinomeScan; assay type: binding; conditions: 1uM
T26 construct: purchased DiscoveRx KINOMEscan

ERK4 = target: T27, ERK4 (Homo sapiens, UniProt P31152); test: KinomeScan; assay type: binding; conditions: 1uM
T27 construct: purchased DiscoveRx KINOMEscan

RIOK3 = target: T28, RIOK3 (Homo sapiens, UniProt O14730); test: KinomeScan; assay type: binding; conditions: 1uM
T28 construct: purchased DiscoveRx KINOMEscan

IGF1R = target: T29, IGF1R (Homo sapiens, UniProt P08069); test: KinomeScan; assay type: binding; conditions: 1uM
T29 construct: purchased DiscoveRx KINOMEscan

SNARK = target: T30, SNARK (Homo sapiens, UniProt Q9H093); test: KinomeScan; assay type: binding; conditions: 1uM
T30 construct: purchased DiscoveRx KINOMEscan

SIK = target: T31, SIK (Homo sapiens, UniProt P57059); test: KinomeScan; assay type: binding; conditions: 1uM
T31 construct: purchased DiscoveRx KINOMEscan

[4] = target: T32, TYK2(JH2domain-pseudokinase) (Homo sapiens, UniProt P29597); test: KinomeScan; assay type: binding; conditions: 1uM
T32 construct: TYK2(JH2domain-pseudokinase); purchased DiscoveRx KINOMEscan
T32 sequence (P29597 556-888 limits assumed): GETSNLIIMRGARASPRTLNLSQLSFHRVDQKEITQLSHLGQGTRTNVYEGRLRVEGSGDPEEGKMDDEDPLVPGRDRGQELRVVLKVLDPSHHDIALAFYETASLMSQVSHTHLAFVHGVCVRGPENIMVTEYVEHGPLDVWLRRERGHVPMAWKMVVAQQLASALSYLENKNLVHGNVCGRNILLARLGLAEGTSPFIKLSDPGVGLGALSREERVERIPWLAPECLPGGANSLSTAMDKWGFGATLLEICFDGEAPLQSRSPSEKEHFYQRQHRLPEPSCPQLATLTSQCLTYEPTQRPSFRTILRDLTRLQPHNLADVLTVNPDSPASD

PFCDPK1(P.falciparum) = target: T33, PFCDPK1(P.falciparum) (Plasmodium falciparum, UniProt P62344); test: KinomeScan; assay type: binding; conditions: 1uM
T33 construct: purchased DiscoveRx KINOMEscan

NLK = target: T34, NLK (Homo sapiens, UniProt Q9UBE8); test: KinomeScan; assay type: binding; conditions: 1uM
T34 construct: purchased DiscoveRx KINOMEscan

CAMK2D = target: T35, CAMK2D (Homo sapiens, UniProt Q13557); test: KinomeScan; assay type: binding; conditions: 1uM
T35 construct: purchased DiscoveRx KINOMEscan
T35 sequence (Q13557 whole entry): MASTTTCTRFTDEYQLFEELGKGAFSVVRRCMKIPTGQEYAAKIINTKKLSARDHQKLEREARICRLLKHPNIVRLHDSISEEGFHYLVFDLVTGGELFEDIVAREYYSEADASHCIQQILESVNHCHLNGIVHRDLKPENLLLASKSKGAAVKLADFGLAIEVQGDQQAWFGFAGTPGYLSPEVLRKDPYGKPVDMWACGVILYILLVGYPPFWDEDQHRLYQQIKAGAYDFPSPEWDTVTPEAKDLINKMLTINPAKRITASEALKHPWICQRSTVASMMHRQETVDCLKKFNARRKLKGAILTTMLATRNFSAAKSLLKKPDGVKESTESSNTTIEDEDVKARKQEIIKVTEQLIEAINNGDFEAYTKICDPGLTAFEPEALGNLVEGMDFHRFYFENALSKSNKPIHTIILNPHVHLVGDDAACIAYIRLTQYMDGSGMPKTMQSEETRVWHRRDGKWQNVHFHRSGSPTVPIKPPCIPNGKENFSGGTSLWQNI

[5] = target: T36, RSK2(Kin.Dom.1-N-terminal) (Homo sapiens, UniProt P51812); test: KinomeScan; assay type: binding; conditions: 1uM
T36 construct: RSK2(Kin.Dom.1-N-terminal); purchased DiscoveRx KINOMEscan
T36 sequence (P51812 1-397 limits assumed): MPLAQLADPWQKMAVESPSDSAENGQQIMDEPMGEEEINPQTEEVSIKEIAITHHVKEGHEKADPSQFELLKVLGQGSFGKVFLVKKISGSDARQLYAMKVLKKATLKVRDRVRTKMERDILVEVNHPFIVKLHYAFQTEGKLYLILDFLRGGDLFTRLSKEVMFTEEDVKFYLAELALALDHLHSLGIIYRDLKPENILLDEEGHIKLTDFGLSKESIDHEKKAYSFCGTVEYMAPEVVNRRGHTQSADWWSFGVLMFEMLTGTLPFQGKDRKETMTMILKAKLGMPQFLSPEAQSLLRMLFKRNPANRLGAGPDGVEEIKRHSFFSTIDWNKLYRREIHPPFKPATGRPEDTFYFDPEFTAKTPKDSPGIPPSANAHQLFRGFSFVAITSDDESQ

YANK3 = target: T37, YANK3 (Homo sapiens, UniProt Q86UX6); test: KinomeScan; assay type: binding; conditions: 1uM
T37 construct: purchased DiscoveRx KINOMEscan
T37 sequence (Q86UX6 whole entry): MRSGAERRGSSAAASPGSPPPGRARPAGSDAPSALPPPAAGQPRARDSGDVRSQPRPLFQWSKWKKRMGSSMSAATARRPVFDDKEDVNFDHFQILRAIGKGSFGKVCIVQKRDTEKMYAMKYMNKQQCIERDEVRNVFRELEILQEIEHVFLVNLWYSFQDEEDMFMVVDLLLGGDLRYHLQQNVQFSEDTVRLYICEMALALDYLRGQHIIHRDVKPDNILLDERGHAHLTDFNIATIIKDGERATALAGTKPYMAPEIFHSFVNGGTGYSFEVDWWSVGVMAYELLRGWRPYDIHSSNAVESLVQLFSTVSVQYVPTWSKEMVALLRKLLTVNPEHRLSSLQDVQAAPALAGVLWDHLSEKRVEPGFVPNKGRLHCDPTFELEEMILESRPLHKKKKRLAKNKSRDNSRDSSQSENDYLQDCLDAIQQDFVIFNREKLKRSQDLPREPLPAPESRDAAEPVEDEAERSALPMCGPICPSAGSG

ADCK4 = target: T38, ADCK4 (Homo sapiens, UniProt Q96D53); test: KinomeScan; assay type: binding; conditions: 1uM
T38 construct: purchased DiscoveRx KINOMEscan

[6] = target: T39, ABL1(F317I)-phosphorylated (Homo sapiens, UniProt P00519, F317I); test: KinomeScan; assay type: binding; conditions: 1uM
T39 construct: purchased DiscoveRx KINOMEscan

SYK = target: T40, SYK (Homo sapiens, UniProt P43405); test: KinomeScan; assay type: binding; conditions: 1uM
T40 construct: purchased DiscoveRx KINOMEscan

PI3Kγ = PI3Kγ (Homo sapiens, UniProt P48736); test: biochemical
Method: as §1

CSNK1A1 = target: T41, CSNK1A1 (Homo sapiens, UniProt P48729); test: KinomeScan; assay type: binding; conditions: 1uM
T41 construct: purchased DiscoveRx KINOMEscan
T41 sequence (P48729 whole entry): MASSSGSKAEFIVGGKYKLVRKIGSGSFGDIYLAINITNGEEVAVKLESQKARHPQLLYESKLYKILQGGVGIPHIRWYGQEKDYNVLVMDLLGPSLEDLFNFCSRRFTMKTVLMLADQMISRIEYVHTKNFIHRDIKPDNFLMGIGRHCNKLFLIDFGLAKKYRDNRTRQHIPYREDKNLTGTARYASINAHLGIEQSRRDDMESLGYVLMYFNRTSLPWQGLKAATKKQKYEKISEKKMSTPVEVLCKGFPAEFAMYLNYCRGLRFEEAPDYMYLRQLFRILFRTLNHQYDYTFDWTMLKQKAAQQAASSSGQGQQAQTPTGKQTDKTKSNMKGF

Cc1nc(NC(=O)[C@@H](N)C(C)C)sc1-c1cnc(Cl)c(NS(=O)(=O)c2ccccc2)c1 [PI3KD-IN-015]
KinomeScan PCTK3 (PCTK3): 100 | KinomeScan ERBB3 (ERBB3): 100 | KinomeScan CDK8 (CDK8): 100 | KinomeScan LTK (LTK): 100 | pIC50 (PI4KA): < 5.00 | KinomeScan PRKR (PRKR): 100 | KinomeScan MKNK2 (MKNK2): 98 | KinomeScan RPS6KA5(Kin.Dom.1-N-terminal) [1]: 100 | KinomeScan PRKD2 (PRKD2): 94 | KinomeScan RET(V804M) (RET(V804M)): 100 | KinomeScan FLT3(D835H) (FLT3(D835H)): 94 | KinomeScan JAK2(JH1domain-catalytic) [2]: 96 | KinomeScan PRKCD (PRKCD): 100 | KinomeScan GSK3B (GSK3B): 97 | KinomeScan AURKC (AURKC): 77 | KinomeScan WNK3 (WNK3): 100 | KinomeScan TSSK1B (TSSK1B): 97 | KinomeScan HPK1 (HPK1): 87 | KinomeScan ABL1(M351T)-phosphorylated [3]: 98 | KinomeScan NEK9 (NEK9): 100 | KinomeScan MLK2 (MLK2): 89 | KinomeScan PFTAIRE2 (PFTAIRE2): 100 | KinomeScan BMPR1A (BMPR1A): 84 | KinomeScan WEE1 (WEE1): 100 | KinomeScan p38-alpha (p38-alpha): 100 | KinomeScan PCTK1 (PCTK1): 93 | KinomeScan ERK4 (ERK4): 100 | KinomeScan RIOK3 (RIOK3): 96 | KinomeScan IGF1R (IGF1R): 100 | KinomeScan SNARK (SNARK): 97 | KinomeScan SIK (SIK): 99 | KinomeScan TYK2(JH2domain-pseudokinase) [4]: 100 | KinomeScan PFCDPK1(P.falciparum) (PFCDPK1(P.falciparum)): 100 | KinomeScan NLK (NLK): 92 | KinomeScan CAMK2D (CAMK2D): 95 | KinomeScan RSK2(Kin.Dom.1-N-terminal) [5]: 100 | KinomeScan YANK3 (YANK3): 97 | KinomeScan ADCK4 (ADCK4): 95 | KinomeScan ABL1(F317I)-phosphorylated [6]: 89 | KinomeScan SYK (SYK): 100 | pIC50 (PI3Kγ): 6.90 | KinomeScan CSNK1A1 (CSNK1A1): 100

From paper PMC5078040 (Oncotarget, 2016)
